Earlier results as cited in patent EP4603079A1, “COMPOSITION COMPRISING A PEPTIDE HAVING AN ISOELECTRIC POINT OF LESS THAN 6.5 AND A CO-POLYAMINO ACID BEARING CARBOXYLATE CHARGES AND HYDROPHOBIC RADICALS” (Adocia, priority 2024, dated 2025).

Molecular target: T1, amylin receptor 3 (AMYR3) (Homo sapiens, UniProt O60896+P30988)
T1 sequence (P30988 25-474): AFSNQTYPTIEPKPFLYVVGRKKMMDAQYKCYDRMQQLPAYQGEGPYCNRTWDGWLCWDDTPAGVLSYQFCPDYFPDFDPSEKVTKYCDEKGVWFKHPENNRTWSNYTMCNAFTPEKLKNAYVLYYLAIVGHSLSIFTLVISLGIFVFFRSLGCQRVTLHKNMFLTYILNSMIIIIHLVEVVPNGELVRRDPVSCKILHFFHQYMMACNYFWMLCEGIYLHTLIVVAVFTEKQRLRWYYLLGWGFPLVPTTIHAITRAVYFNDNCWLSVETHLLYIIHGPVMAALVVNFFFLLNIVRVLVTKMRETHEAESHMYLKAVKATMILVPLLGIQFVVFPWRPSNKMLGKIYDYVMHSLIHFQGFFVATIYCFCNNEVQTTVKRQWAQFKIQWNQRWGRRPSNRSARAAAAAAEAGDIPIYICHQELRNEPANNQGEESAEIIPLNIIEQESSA
T1 sequence (O60896 24-148): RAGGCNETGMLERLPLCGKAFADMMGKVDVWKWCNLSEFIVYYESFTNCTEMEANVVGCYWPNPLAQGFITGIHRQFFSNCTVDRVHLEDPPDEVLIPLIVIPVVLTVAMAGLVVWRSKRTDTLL
Conditions: procedure of WO2022129526, Assay 2; Tables 4b and 4c there; read-out: EC50value

N-alpha-[(S)-4-Carboxy-4-(19-carboxynonadecanoylamino)butyryl]-[Glu14,Arg17,Pro37]-pramlintide [cagrilintide]
EC50: ~11 pM
